Source: patent US8476251B2, “Skin care compositions comprising substituted diamines” (Conopco, Inc., priority 2010, dated 2013)

System: Melanoderm tissue equivalent model MEL-300 containing melanocytes obtained from dark skin individuals
Experiment: Melanoderm tissue equivalent model MEL-300, total melanin content (inhibition of melanogenesis)
Assay type: cell-based
Details: 14 days; for inhibition at 10 µM: Melanocyte, 336 h, 10 μM in maintenance medium, total melanin content vs DMSO vehicle control, read-out: Melanoderm (% Reduction at 10 μM); for melanogenesis inhibition (in words): Melanoderm MEL-300, 10 μM
Protocol: Melanoderm tissue equivalent model MEL-300 (MatTek: Ashland, Mass.) containing melanocytes obtained from dark skin individuals were cultured as per supplier instructions. Components were added to the maintenance medium phase (no topical treatments) at a final concentration of 10 μM for 14 days at which time the experiment was terminated and the tissues assessed for melanin content. Medium and treatments were changed three times per week. DMSO was utilized as the vehicle control and all treatments were performed at least in duplicate.
For quantification of total melanin, each Melanoderm was placed into an individual Eppendorf tube (2 mL) into which 250 μL of Solvable™ tissue solubilizer (Packard Bioscience Co., Cat# 6NE9100) was added. Each tube was vortexed and incubated at 60° C. for 18 hours. Each sample was then centrifuged (5-minutes at 13,000 RPMs) to remove any particulates. 100 or 200 μL of supernatant were transferred to a 96 well microtiter plate and the absorbance read at 490 nm. Total melanin content was calculated from a standard curve using synthetic melanin (Sigma Cat# M8631). Data was analyzed for significance using the t-test in Microsoft Excel to generate p-values (p-values less than 0.01 represent 99% confidence, p values of 0.05 represent 95% confidence both of which are statistically significant).

SMILES	inhibition at 10 µM [%]	melanogenesis inhibition (in words)
CN(C)CCN(CC1CCCCC1)CC1CCCCC1 [Compound 5a, N,N-bis(cyclohexylmethyl)-N′,N′-dimethylethane-1,2-diamine]	42.5	–
CN(C)CCCN(Cc1ccccc1)Cc1ccccc1 [Compound 5f, N,N-dibenzyl-N′,N′-dimethylpropane-1,3-diamine]	50	–
CN(C)CCN(Cc1ccccc1)Cc1ccc2ccccc2c1 [Compound 3d, N-benzyl-N′,N′-dimethyl-N-(naphthalen-2-ylmethyl)ethane-1,2-diamine]	56	–
COc1ccc(CN(CCN(C)C)Cc2ccc(OC)cc2)cc1 [Compound 5b, N,N-bis(4-methoxybenzyl)-N′,N′-dimethylethane-1,2-diamine]	48.7	–
Cc1ccc(CN(CCN(C)C)Cc2ccccc2)cc1 [Compound 3g, N-benzyl-N′,N′-dimethyl-N-(4-methylbenzyl)ethane-1,2-diamine]	53.2	–
Cc1cccc(CN(CCN(C)C)Cc2ccccc2)c1 [Compound 3f, N-benzyl-N′,N′-dimethyl-N-(3-methylbenzyl)ethane-1,2-diamine]	51.6	–
COc1ccc(CN(CCN(C)C)Cc2ccccc2)cc1 [Compound 3h, N-benzyl-N-(4-methoxybenzyl)-N′,N′-dimethylethane-1,2-diamine]	48.8	–
CN(C)CCN(Cc1ccccc1)Cc1ccccc1 [Compound 3b, N,N-dibenzyl-N′,N′-dimethylethane-1,2-diamine]	39.5	effective at melanogenesis inhibition
CN(C)CCN(CCc1ccccc1)Cc1ccccc1 [Compound 3c, N-benzyl-N′,N′-dimethyl-N-(2-phenylethyl)ethane-1,2-diamine]	51.8	–
CC(c1ccccc1)N(CCN(C)C)Cc1ccccc1 (stereo not shown) [Compound 11, N-benzyl-N′,N′-dimethyl-N-(1-phenylethyl)ethane-1,2-diamine]	47.8	–
Cc1ccccc1CN(CCN(C)C)Cc1ccccc1 [Compound 3e, N-benzyl-N′,N′-dimethyl-N-(2-methylbenzyl)ethane-1,2-diamine]	46.6	–
CN(C)CCN(Cc1ccccc1)CC1CCCCC1 [Compound 3a, N-benzyl-N-(cyclohexylmethyl)-N′,N′-dimethylethane-1,2-diamine]	51.3	effective at melanogenesis inhibition
CN(C)CCN(Cc1ccccc1)C(=O)c1ccccc1 [Compound 7, N-benzyl-N-[2-(dimethylamino)ethyl]benzamide]	4.4	is not
CN(C)CCN(Cc1ccccc1)Cc1ccc(F)cc1 [Compound 3i, N-benzyl-N-(4-fluorobenzyl)-N′,N′-dimethylethane-1,2-diamine]	47.8	–
CCN(CCN(C)C)Cc1ccccc1 [Compound 3j, N-benzyl-N-ethyl-N′,N′-dimethylethane-1,2-diamine]	-0.1	is not
CCN(CC)CCN(Cc1ccccc1)Cc1ccccc1 [Compound 5d, N,N-dibenzyl-N′,N′-diethylethane-1,2-diamine]	45.6	–
c1ccc(CN(CCN2CCCC2)Cc2ccccc2)cc1 [Compound 5e, N,N-dibenzyl-2-(pyrrolidin-1-yl)ethanamine]	40.6	–
CN(C)CCN(Cc1ccc(F)cc1)Cc1ccc(F)cc1 [Compound 5c, N,N-bis(4-fluorobenzyl)-N′,N′-dimethylethane-1,2-diamine]	49.3	–
